Laboratory results published in patent US8841233B2, “Herbicidal compositions comprising 4-amino-3-chloro-5-fluoro-6-(4-chloro-2-fluoro-3-methoxyphenyl) pyridine-2-carboxylic acid or a derivative thereof and 4-hydroxyphenyl-pyruvate dioxygenase (HPPD) inhibitors” (Dow Agrosciences LLC, priority 2012, dated 2014).
Several values for one entry are separate records, joined by “and”; a condition that tells them apart may be missing. Equal values may be shown once.

Key:
[1] = system: CYPRO; experiment: In-water applied weed control, transplanted paddy rice, greenhouse (Example II); format: in vivo, Cyperus rotundus L.
Protocol: Evaluation of in-Water Applied Herbicidal Mixtures for Weed Control in Transplanted Paddy Rice
Weed seeds or nutlets of the desired test plant species were planted in puddled soil (mud) prepared by mixing a shredded, non-sterilized mineral soil (50.5 percent silt, 25.5 percent clay, and 24 percent sand, with a pH of about 7.6 and an organic matter content of about 2.9 percent) and water at a 1:1 volumetric ratio. The prepared mud was dispensed in 365 mL aliquots into 16-ounce (oz.) non-perforated plastic pots with a surface area of 86.59 square centimeters (cm^2) leaving a headspace of 3 centimeters (cm) in each pot. Mud was allowed to dry overnight prior to planting or transplanting. Rice seeds were planted in Sun Gro MetroMix® 306 planting mixture, which typically has a pH of 6.0 to 6.8 and an organic matter content of about 30 percent, in plastic plug trays. Seedlings at the second or third leaf stage of growth were transplanted into 840 mL of mud contained in 32-oz. non-perforated plastic pots with a surface area of 86.59 cm^2 4 days prior to herbicide application. The paddy was created by filling the headspace of the pots with 2.5 to 3 cm of water. When required to ensure good germination and healthy plants, a fungicide treatment and/or other chemical or physical treatment was applied. The plants were grown for 4-22 days in a greenhouse with an approximate 14 h photoperiod which was maintained at about 29′C during the day and 26° C. during the night. Nutrients were added as Osmocote® (19:6:12, N:P:K+ minor nutrients) at 2 g per 16-oz. pot and 4 g per 32-oz. pot. Water was added on a regular basis to maintain the paddy flood, and supplemental lighting was provided with overhead metal halide 1000-Watt lamps as necessary. The plants were employed for testing when they reached the first through fourth true leaf stage.
Treatments consisted of the acid or esters of 4-amino-3-chloro-5-fluoro-6-(4-chloro-2-fluoro-3-methoxy-phenyl)pyridine-2-carboxylic acid (compound A) each formulated as an SC (suspension concentrate) and various herbicidal components alone and in combination. Forms of compound A were applied on an acid equivalent basis.
Other herbicidal components were applied on an active ingredient basis and included 4-hydroxyphenyl pyruvate dioxygenase (HPPD)-inhibiting herbicides mesotrione formulated as Callisto®, sulcotrione formulated as Mikado®, pyrazolynate formulated as Sunbird® 10% GR, and benzobicyclon formulated as Benzobicyclon 3.5% or technical material.
Treatment requirements for each compound or herbicidal component were calculated based upon the rates being tested, the concentration of active ingredient or acid equivalent in the formulation, an application volume of 2 mL per component per pot, and an application area of 86.59 cm^2 per pot.
For formulated compounds, a measured amount was placed in an individual 100 or 200 mL glass vial and was dissolved in a volume of 1.25% (v/v) Agri-Dex® crop oil concentrate to obtain application solutions.
For technical grade compounds, a weighed amount was placed in an individual 100 to 200 mL glass vial and was dissolved in a volume of acetone to obtain concentrated stock solutions. […] The concentrated stock solutions obtained were diluted with an equivalent volume of an aqueous mixture containing 2.5% (v/v) crop oil concentrate so that the final application solutions contained 1.25% (v/v) crop oil concentrate.
Applications were made by injecting with a pipetter appropriate amounts of the application solutions, individually and sequentially, into the aqueous layer of the paddy. Control plants were treated in the same manner with the solvent blank. Applications were made so that all treated plant material received the same concentrations of acetone and crop oil concentrate.
The treated plants and control plants were placed in a greenhouse as described above and water was added as needed to maintain a paddy flood. […]

[2] = system: CYPIR; experiment: Post-emergence foliar-applied weed control, greenhouse (Example I); format: in vivo, Cyperus iria L.
Source text: Evaluation of Post-emergence Foliar-Applied Herbicidal Mixtures for Weed Control in Direct Seeded Rice
Seeds or nutlets of the desired test plant species were planted in a soil matrix prepared by mixing a loam or sandy loam soil (e.g., 28.6 percent silt, 18.8 percent clay, and 52.6 percent sand, with a pH of about 5.8 and an organic matter content of about 1.8 percent) and calcareous grit in an 80 to 20 ratio. The soil matrix was contained in plastic pots with a volume of 1 quart and a surface area of 83.6 square centimeters (cm^2). When required to ensure good germination and healthy plants, a fungicide treatment and/or other chemical or physical treatment was applied. The plants were grown for 8-22 days in a greenhouse with an approximate 14 h photoperiod which was maintained at about 29° C. during the day and 26° C. during the night. Nutrients (Peters Excel® 15-5-15 5-Ca 2-Mg and iron chelate) were applied in the irrigation solution as needed and water was added on a regular basis. Supplemental lighting was provided with overhead metal halide 1000-Watt lamps as necessary. The plants were employed for testing when they reached the first through fourth true leaf stage.
Treatments consisted of the acid or esters of 4-amino-3-chloro-5-fluoro-6-(4-chloro-2-fluoro-3-methoxy-phenyl)pyridine-2-carboxylic acid (Compound A), each formulated as an SC (suspension concentrate), and various herbicidal components alone and in combination. Forms of Compound A were applied on an acid equivalent basis.
Other herbicidal components were applied on an active ingredient basis and included 4-hydroxyphenyl pyruvate dioxygenase (HPPD)-inhibiting herbicides mesotrione formulated as Callisto®, sulcotrione formulated as Mikado®, pyrazolynate formulated as Sunbird® 10% GR, and benzobicyclon formulated as Benzobicyclon 3.5%.
Treatment requirements were calculated based upon the rates being tested, the concentration of active ingredient or acid equivalent in the formulation, and a 12 mL application volume at a rate of 187 L/ha.
For treatments comprised of formulated compounds, measured amounts of compounds were placed individually in 25 mL glass vials and diluted in a volume of 1.25% (v/v) Agri-Dex® crop oil concentrated to obtain 12× stock solutions. […] Application solutions were prepared by adding an appropriate amount of each stock solution (e.g., 1 mL) and diluted to the appropriate final concentrations with the addition of 10 mL of an aqueous mixture of 1.25% (v/v) crop oil concentrate so that the final spray solutions contained 1.25+/−0.05% (v/v) crop oil concentrate.
For treatments comprised of formulated and technical compounds, weighed amounts of the technical materials were placed individually in 25 mL glass vials and dissolved in a volume of 97:3 v/v acetone/DMSO to obtain 12× stock solutions, and measured amounts of the formulated compounds were placed individually in 25 mL glass vials and diluted in a volume of 1.5% (v/v) crop oil concentrate or water to obtain 12× stock solutions. […] Application solutions were prepared by adding an appropriate amount of each stock solution (e.g., 1 mL) and diluted to the appropriate final concentrations with the addition of an appropriate amount of an aqueous mixture of 1.5% (v/v) crop oil concentrate so that the final spray solutions contained 1.25% (v/v) crop oil concentrate. As required, additional water and/or 97:3 v/v acetone/DMSO was added to individual application solutions so that the final acetone and DMSO concentrations of the application solutions being compared were 8.1% and 0.25%, respectively.
All stock solutions and applications solutions were visually inspected for compound compatibility prior to application. Spray solutions were applied to the plant material with an overhead Mandel track sprayer equipped with a 8002E nozzles calibrated to deliver 187 L/ha over an application area of 0.503 m^2 at a spray height of 18 to 20 inches (46 to 50 cm) above average plant canopy height. […]

Row | Compound | Visual Weed Control (%) - 21 DAA CYPRO Obs ([1]; 17.5 gae/ha) | Visual Weed Control (%) - 22 DAA CYPIR Obs ([2]; 4.38 gae/ha) | Visual Weed Control (%) - 22 DAA CYPIR Obs ([2]; 8.75 gae/ha) | Visual Weed Control (%) - 22 DAA CYPRO Obs ([1]; 10.6 gae/ha) | Visual Weed Control (%) - 22 DAA CYPRO Obs ([1]; 21.2 gae/ha) | Visual Weed Control (%) - 22 DAA CYPRO Obs ([1]; 42.4 gae/ha) | Visual Weed Control (%) - 20 DAA CYPIR Obs ([2]; 4.38 gae/ha) | Visual Weed Control (%) - 20 DAA CYPIR Obs ([2]; 8.75 gae/ha) | Visual Weed Control (%) - 20 DAA CYPIR Obs ([2]; 17.5 gae/ha)
1 | COc1c(Cl)ccc(-c2nc(C(=O)OCc3ccccc3)c(Cl)c(N)c2F)c1F [Compound A Benzyl Ester, benzyl ester of 4-amino-3-chloro-5-fluoro-6-(4-chloro-2-fluoro-3-methoxy-phenyl)pyridine-2-carboxylic acid] | 10% | 10% | 65% |  |  |  |  |  | 
2 | COc1c(Cl)ccc(-c2nc(C(=O)O)c(Cl)c(N)c2F)c1F [Compound A Acid, 4-amino-3-chloro-6-(4-chloro-2-fluoro-3-methoxyphenyl)-5-fluoropyridine-2-carboxylic acid] |  |  |  | 0% | 40% and 60% | 90% | 75% | 90% | 90%
